Source: ChEMBL document CHEMBL1201862, “PubChem BioAssay data set” (2004)
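How tested: cells in 96-well plates exposed to compound for 48 hours at five concentrations. Here, GI50 denotes the concentration required for 50% inhibition of growth.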 Calls of active or inactive are those of the source. No stated cut-off is given here; in the data, active = GI50 up to about 1.1 µM and inactive = higher.

What was measured:
Test in all cases: NCI-60 cell line screen, 48 h
[1] = tested on: CAKI-1
[2] = tested on: DU-145
[3] = tested on: EKVX
[4] = tested on: HCT-116
[5] = tested on: HOP-62
[6] = tested on: IGROV-1
[7] = tested on: LOX IMVI
[8] = tested on: M14
[9] = tested on: MDA-MB-435
[10] = tested on: NCI-H460
[11] = tested on: OVCAR-4
[12] = tested on: OVCAR-5
[13] = tested on: OVCAR-8
[14] = tested on: PC-3
[15] = tested on: SF-268
[16] = tested on: SK-MEL-5
[17] = tested on: SNB-19
[18] = tested on: SW-620
[19] = tested on: T47D
[20] = tested on: UACC-257

Measured: GI50

O=c1[nH]nc(Cc2ccc(Cl)cc2)n1/N=C\c1ccc(/C=N/n2c(Cc3ccc(Cl)cc3)n[nH]c2=O)cc1
inactive: [1] 33.3 µM | [2] > 100 µM | [3] > 100 µM | [4] > 100 µM | [5] 17 µM | [6] > 100 µM | [7] > 100 µM | [8] > 100 µM | [9] > 100 µM | [10] > 100 µM | [11] 76.4 µM | [12] > 100 µM | [13] 54 µM | [14] > 100 µM | [15] 37.9 µM | [16] > 100 µM | [17] 50.7 µM | [18] > 100 µM | [19] > 100 µM | [20] > 100 µM

CC1(C)O[C@H]([C@H](O)c2nnc3ccc(Cl)nn23)[C@@H]([C@H]2COC(C)(C)O2)O1
inactive: [1] > 100 µM | [2] > 100 µM | [3] > 100 µM | [4] > 100 µM | [5] > 100 µM | [6] > 100 µM | [7] > 100 µM | [8] > 100 µM | [9] > 100 µM | [10] > 100 µM | [11] > 100 µM | [12] > 100 µM | [13] > 100 µM | [14] > 100 µM | [15] > 100 µM | [16] > 100 µM | [17] > 100 µM | [18] > 100 µM | [19] > 100 µM | [20] > 100 µM

CC1=CC(=O)/C(=C/NC(=S)Nc2ccccc2)C(=O)O1
inactive: [1] > 100 µM | [2] > 100 µM | [3] > 100 µM | [4] > 100 µM | [5] > 100 µM | [6] > 100 µM | [7] > 100 µM | [8] > 100 µM | [9] > 100 µM | [10] > 100 µM | [11] > 100 µM | [12] > 100 µM | [13] > 100 µM | [14] > 100 µM | [15] > 100 µM | [16] > 100 µM | [17] > 100 µM | [18] > 100 µM | [19] > 100 µM | [20] > 100 µM

O=C1/C(=C/c2ccccc2)CCC/C1=C\c1ccc(O)c(CN2CCCCC2)c1
inactive: [1] 8.07 µM | [2] 2.62 µM | [3] 6.75 µM | [4] 1.57 µM | [5] 13.5 µM | [6] 3.72 µM | [7] 1.99 µM | [8] 3.26 µM | [9] 2.55 µM | [10] 4.66 µM | [11] 5.5 µM | [12] 15.3 µM | [13] 3.78 µM | [14] 4.56 µM | [15] 5.07 µM | [16] 2.92 µM | [17] 9.35 µM | [18] 2.39 µM | [19] 4.88 µM | [20] 5.53 µM

CN(C)CCCCN1c2ccccc2Sc2cc(N=[N+]=[N-])ccc21
inactive: [1] 1.84 µM | [2] 2.1 µM | [3] 4.15 µM | [4] 1.78 µM | [5] 2.28 µM | [6] 1.73 µM | [7] 1.56 µM | [8] 1.69 µM | [9] 1.67 µM | [10] 1.89 µM | [11] 2.4 µM | [12] 1.89 µM | [13] 1.69 µM | [14] 1.86 µM | [15] 2.38 µM | [16] 1.73 µM | [17] 5.75 µM | [18] 1.87 µM | [19] 1.94 µM | [20] 1.83 µM

CCOC(=O)C1=CC(C)(C(=O)OCC)Nc2c(nc(N)[nH]c2=O)N1 (stereo not given)
inactive: [1] > 10 µM | [2] > 10 µM | [3] > 10 µM | [4] > 10 µM | [5] > 10 µM | [6] > 10 µM | [7] > 10 µM | [8] > 10 µM | [9] > 10 µM | [10] > 10 µM | [11] > 10 µM | [12] > 10 µM | [13] > 10 µM | [14] > 10 µM | [15] > 10 µM | [16] > 10 µM | [17] > 10 µM | [18] > 10 µM | [19] > 10 µM | [20] > 10 µM

O=C1c2ccccc2C(=O)N1[C@@H](Cc1ccccc1)C(=O)n1cccc1CO
inactive: [1] > 100 µM | [2] > 100 µM | [3] > 100 µM | [4] > 100 µM | [5] > 100 µM | [6] > 100 µM | [7] > 100 µM | [8] > 100 µM | [9] > 100 µM | [10] > 100 µM | [11] > 100 µM | [12] > 100 µM | [13] > 100 µM | [14] > 100 µM | [15] > 100 µM | [16] > 100 µM | [17] > 100 µM | [18] > 100 µM | [19] > 100 µM | [20] > 100 µM

Cc1ccc(/C=C2\CN(C)CC3=C2N=C(S)NC3c2ccc(C)cc2)cc1 (stereo not given)
inactive: [1] > 100 µM | [2] 34.4 µM | [3] 41.8 µM | [4] 21.8 µM | [5] 40.5 µM | [6] 47.2 µM | [7] 30.3 µM | [8] 27.3 µM | [9] 8.63 µM | [10] 37.6 µM | [11] 14 µM | [12] > 100 µM | [13] 25.5 µM | [14] 32.1 µM | [15] 44.4 µM | [16] 25.7 µM | [17] 73.5 µM | [18] 61.2 µM | [19] > 100 µM | [20] 7 µM

CO/C(N)=C(C#N)/N=C/c1ccccc1
inactive: [1] > 100 µM | [2] > 100 µM | [3] 66.7 µM | [4] > 100 µM | [5] > 100 µM | [6] > 100 µM | [7] > 100 µM | [8] 79.6 µM | [9] > 100 µM | [10] > 100 µM | [11] 71 µM | [12] > 100 µM | [13] > 100 µM | [14] > 100 µM | [15] > 100 µM | [16] > 100 µM | [17] 66.2 µM | [18] > 100 µM | [19] > 100 µM | [20] > 100 µM

CC(=O)OC[C@@]12C[C@H]3C(=O)C(C)(C)C[C@H]3[C@]1(C)[C@@H](OC(C)=O)[C@]1(O)[C@H]([C@@H](OC(=O)c3ccccc3)[C@@H](C)[C@H]1OC(C)=O)[C@H]2OC(C)=O
inactive: [1] > 20 µM | [2] > 20 µM | [3] > 20 µM | [4] > 20 µM | [5] > 20 µM | [6] > 20 µM | [7] > 20 µM | [8] > 20 µM | [9] > 20 µM | [10] 6.19 µM | [11] > 20 µM | [12] > 20 µM | [13] > 20 µM | [14] > 20 µM | [15] > 20 µM | [16] > 20 µM | [17] > 20 µM | [18] > 20 µM | [19] > 20 µM | [20] > 20 µM

Fc1ccccc1-c1nn2c(C34CC5CC(CC(C5)C3)C4)nnc2s1
inactive: [1] > 100 µM | [2] > 100 µM | [3] > 100 µM | [4] > 100 µM | [5] > 100 µM | [6] > 100 µM | [7] > 100 µM | [8] > 100 µM | [9] > 100 µM | [10] > 100 µM | [11] > 100 µM | [12] > 100 µM | [13] > 100 µM | [14] > 100 µM | [15] > 100 µM | [16] > 100 µM | [17] > 100 µM | [18] > 100 µM | [19] > 100 µM | [20] > 100 µM

Cc1sc2c(c1C)/C(=N\O)c1cccn1-2
inactive: [1] 32.6 µM | [2] 61 µM | [3] 22.2 µM | [4] 37.6 µM | [5] 25.3 µM | [6] 24.3 µM | [7] 55.7 µM | [8] 64 µM | [9] 54 µM | [10] 35.1 µM | [11] 44.9 µM | [12] > 100 µM | [13] 45.8 µM | [14] 29.9 µM | [15] 34 µM | [16] 46.1 µM | [17] 23.3 µM | [18] 58.6 µM | [19] 25.1 µM | [20] 93.5 µM

O=C1/C(=N\NC(=S)NC2CCCCC2)c2cc([N+](=O)[O-])ccc2N1CN1CCOCC1
inactive: [1] 3.3 µM | [2] 11 µM | [3] 3.13 µM | [4] 3.57 µM | [5] 10.3 µM | [6] 1.51 µM | [7] 5.04 µM | [8] 9.53 µM | [9] 6.79 µM | [10] 2.55 µM | [11] 4.62 µM | [12] 11.3 µM | [13] 3.9 µM | [14] 4.7 µM | [15] 4.35 µM | [16] 3.16 µM | [17] 7.87 µM | [18] 6.25 µM | [19] 2.64 µM | [20] 10.5 µM
